Laboratory results taken from patent publication US20160009693A1, “HERBICIDAL COMPOUNDS” (SYNGENTA LIMITED, priority 2013, published 2016).

Key:
Assay type in all cases: in vivo
Details in all cases: applied at 1000 g/h, evaluated after 13 days
[1] = system: Alopecurus myosuroides (ALOMY); assay: Herbicidal glasshouse test, pre-emergence, ALOMY
Setaria faberi (SETFA) [2] = assay: Herbicidal glasshouse test, pre-emergence, SETFA
[3] = system: Echinochloa crus-galli (ECHCG); assay: Herbicidal glasshouse test, pre-emergence, ECHCG
Procedure, shortened: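 In this pre-emergence glasshouse test, ECHCG seeds sown in pots of standard soil were sprayed one day after sowing with the test material in acetone/water (50:50) containing 0.5% Tween 20. Plants were kept at 24/16° C., 14 hours light, 65% humidity, and watered twice daily. Percentage damage was rated after 13 days on a 1–5 scale.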

Solanum nigrum (SOLNI) [4] = assay: Herbicidal glasshouse test, pre-emergence, SOLNI
Procedure, shortened: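 This pre-emergence glasshouse herbicide test used Solanum nigrum sown in standard soil. One day after sowing, pots were sprayed with the compound in acetone/water (50:50) with 0.5% Tween 20. They were then grown at 24/16° C., with 14 hours light and 65% humidity, and watered twice daily. Percentage damage was scored after 13 days on a five point scale, where 5=80-100% and 1=0-19%.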

[5] = system: Amaranthus retoflexus (AMARE); assay: Herbicidal glasshouse test, pre-emergence, AMARE
Procedure, shortened: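 This pre-emergence glasshouse herbicide test used Amaranthus retoflexus sown in standard soil. After one day of cultivation, an aqueous spray made from the technical ingredient in 50:50 acetone/water with 0.5% Tween 20 was applied. Pots stayed at 24/16° C., 14 hours light, 65% humidity, with twice-daily watering. Damage was rated on a five point scale (1=0-19% up to 5=80-100%).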

[6] = system: Ipomoea hederacea (IPOHE); assay: Herbicidal glasshouse test, pre-emergence, IPOHE
[7] = system: Alopecurus myosuroides (ALOMY); assay: Herbicidal glasshouse test, post-emergence, ALOMY
Setaria faberi (SETFA) [8] = assay: Herbicidal glasshouse test, post-emergence, SETFA
Procedure, shortened: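 This post-emergence glasshouse herbicide test used potted Setaria faberi. Plants were cultivated for 8 days under controlled conditions (24/16° C. day/night, 14 hours light, 65% humidity) and then treated with an aqueous spray made from an acetone/water (50:50) solution containing 0.5% Tween 20. After 13 days of further growth with twice-daily watering, damage was rated on a five point scale (5=80-100%; 1=0-19%).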

[9] = system: Echinochloa crus-galli (ECHCG); assay: Herbicidal glasshouse test, post-emergence, ECHCG
Procedure, shortened: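 In this post-emergence glasshouse test, barnyard grass (ECHCG) was cultivated for 8 days under controlled conditions (24/16° C. day/night, 14 hours light, 65% humidity). It was then sprayed with an aqueous solution of the technical compound in acetone / water (50:50) with 0.5% Tween 20. Plants were kept under the same conditions and watered twice daily. After 13 days, percentage damage was rated on a five point scale (5=80-100%; 1=0-19%).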

Solanum nigrum (SOLNI) [10] = assay: Herbicidal glasshouse test, post-emergence, SOLNI
[11] = system: Amaranthus retoflexus (AMARE); assay: Herbicidal glasshouse test, post-emergence, AMARE
Procedure, shortened: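 This post-emergence glasshouse test used AMARE plants raised in standard soil for 8 days under controlled conditions (24/16° C. day/night, 14 hours light, 65% humidity). Foliage was sprayed with formulated compound in acetone/water (50:50) containing 0.5% Tween 20. Plants were then watered twice daily, and after 13 days percentage damage was rated on a five point scale.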

[12] = system: Ipomoea hederacea (IPOHE); assay: Herbicidal glasshouse test, post-emergence, IPOHE

Structure (SMILES) | PRE Application ALOMY, percentage damage (five point scale) [1] | PRE Application SETFA, percentage damage (five point scale) (Setaria faberi (SETFA) [2]) | PRE Application ECHCG, percentage damage (five point scale) [3] | PRE Application SOLNI, percentage damage (five point scale) (Solanum nigrum (SOLNI) [4]) | PRE Application AMARE, percentage damage (five point scale) [5] | PRE Application IPOHE, percentage damage (five point scale) [6] | POST Application ALOMY, percentage damage (five point scale) [7] | POST Application SETFA, percentage damage (five point scale) (Setaria faberi (SETFA) [8]) | POST Application ECHCG, percentage damage (five point scale) [9] | POST Application SOLNI, percentage damage (five point scale) (Solanum nigrum (SOLNI) [10]) | POST Application AMARE, percentage damage (five point scale) [11] | POST Application IPOHE, percentage damage (five point scale) [12]
CC(C)Cn1c(=O)c(C(=O)Nc2nnnn2C)nn(C)c1=O [Compound 1.005] | 5 (5=80-100%) | 5 (5=80-100%) | 5 (5=80-100%) | 5 (5=80-100%) | 5 (5=80-100%) | 4 (4=60-79%) | 5 (5=80-100%) | 5 (5=80-100%) | 5 (5=80-100%) | 5 (5=80-100%) | 5 (5=80-100%) | 5 (5=80-100%)
CCCCn1c(=O)c(C(=O)Nc2nnnn2C)cn(C)c1=O [Compound 4.004] | 1 (1=0-19%) | 1 (1=0-19%) | 1 (1=0-19%) | 2 (2=20-39%) | 5 (5=80-100%) | 2 (2=20-39%) | 1 (1=0-19%) | 1 (1=0-19%) | 1 (1=0-19%) | 5 (5=80-100%) | 5 (5=80-100%) | 4 (4=60-79%)
Cn1nnnc1NC(=O)c1nn(C)c(=O)n(CC2CCCCC2)c1=O [Compound 1.096] | 5 (5=80-100%) | 4 (4=60-79%) | 5 (5=80-100%) | 5 (5=80-100%) | 5 (5=80-100%) | 5 (5=80-100%) | 4 (4=60-79%) | 5 (5=80-100%) | 5 (5=80-100%) | 5 (5=80-100%) | 5 (5=80-100%) | 5 (5=80-100%)
Cc1cc(C)cc(-n2c(=O)c(C(=O)Nc3nnnn3C)nn(C)c2=O)c1 [Compound 1.038] | 5 (5=80-100%) | 5 (5=80-100%) | 5 (5=80-100%) | 5 (5=80-100%) | 5 (5=80-100%) | 5 (5=80-100%) | 5 (5=80-100%) | 5 (5=80-100%) | 5 (5=80-100%) | 5 (5=80-100%) | 5 (5=80-100%) | 5 (5=80-100%)
Cn1nnnc1NC(=O)c1nn(C)c(=O)n(-c2ccccc2)c1=O [Compound 1.002] | 5 (5=80-100%) | 5 (5=80-100%) | 5 (5=80-100%) | 5 (5=80-100%) | 5 (5=80-100%) | 5 (5=80-100%) | 5 (5=80-100%) | 5 (5=80-100%) | 5 (5=80-100%) | 5 (5=80-100%) | 5 (5=80-100%) | 5 (5=80-100%)
Cn1nnnc1NC(=O)c1nn(C)c(=O)n(Cc2cccc(Cl)c2)c1=O [Compound 1.084] | 5 (5=80-100%) | 2 (2=20-39%) | 5 (5=80-100%) | 5 (5=80-100%) | 5 (5=80-100%) | 5 (5=80-100%) | 5 (5=80-100%) | 2 (2=20-39%) | 5 (5=80-100%) | 5 (5=80-100%) | 5 (5=80-100%) | 5 (5=80-100%)
Cn1nnnc1NC(=O)c1nn(C)c(=O)n(Cc2ccccc2F)c1=O [Compound 1.058] | 5 (5=80-100%) | 5 (5=80-100%) | 5 (5=80-100%) | 5 (5=80-100%) | 5 (5=80-100%) | 5 (5=80-100%) | 5 (5=80-100%) | 5 (5=80-100%) | 5 (5=80-100%) | 5 (5=80-100%) | 5 (5=80-100%) | 5 (5=80-100%)
Cn1ncnc1NC(=O)c1cn(C)c(=O)n(-c2ccccc2)c1=O [Compound 2.003] | 1 (1=0-19%) | 3 (3=40-59%) | 1 (1=0-19%) | 4 (4=60-79%) | 2 (2=20-39%) | 5 (5=80-100%) | 1 (1=0-19%) | 1 (1=0-19%) | 1 (1=0-19%) | 2 (2=20-39%) | 1 (1=0-19%) | 2 (2=20-39%)
